Reference: patent publication US20230123334A1, “AMINO LIPID COMPOUND, PREPARATION METHOD THEREFOR, AND APPLICATION THEREOF” (SHENZHEN SHENXIN BIOTECHNOLOGY CO., LTD., priority 2020, published 2023)

The compounds below were run on HEK293 cells (assay: Preliminary screening as mRNA vectors, EGFP mRNA transfection of HEK293 cells). Conditions: EGFP mRNA 50 ng per well, 96-well plates; percentage of GFP fluorescent cells relative to total number of cells (Hoechst).
Type: cell-based
How it was run: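 HEK293 cells in DMEM plus 10% FBS transfected in 96-well format with 50 ng EGFP mRNA per well; Lipofectamine2000 served as positive control. Read-out is the percentage of GFP-fluorescent cells among total cells, counted by Hoechst nuclear stain.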

Compound | Absolute mRNA transfection efficiency in HEK293 cells
CCCCCCCCCCCCCCCNc1nc(NCCN2CCN(C)CC2)nc(SCCCCCC)n1 [Compound D5S6N15] | 16.4%
CCCCCCCCCCCCCCCCCCSc1nc(NCCCN(C)C)nc(SCCCCCC)n1 [Compound D6S6S18] | 83.3%
CCCCCCCCCCCCNc1nc(NCCN(CC)CC)nc(SCCCCCCCCCC)n1 [Compound D7S10N12] | 10.6%
CCCCCCCCCCCCCNc1nc(NCCN2CCOCC2)nc(SCCCCCCCCCCC)n1 [Compound D2S11N13] | 1.9%
CCCCCCCCCCCCCCCSc1nc(NCCCCCCCCCCCC)nc(NCCN2CCN(C)CC2)n1 [Compound D5S15N12] | 4.3%
CCCCCCSc1nc(NCCN2CCOCC2)nc(SCCCCCC)n1 [Compound D2S6S6] | 2.2%
CCCCCCCCCCCCCCCCCCSc1nc(NCCCCCCCCCCCCC)nc(NCC2CCN(C)CC2)n1 [Compound D10S18N13] | 2.9%
CCCCCCCCCCCCCCCCCCNc1nc(NCCN2CCOCC2)nc(SCCCCCCC)n1 [Compound D2S7N18] | 5.2%
CCCCCCCCCCCCCCCCCCNc1nc(NCCN2CCN(C)CC2)nc(SCCCCCCCCCCCC)n1 [Compound D5S12N18] | 0.0%
CCCCCCCCCCCCCCCCSc1nc(NCCCCCC)nc(NCCN2CCCC2)n1 [Compound D3S16N6] | 96.0%
CCCCCCCCCCSc1nc(NCCCCCCCC)nc(NCC2CCN(C)CC2)n1 [Compound D10S10N8] | 1.7%
CCCCCCCCCCCNc1nc(NCCN2CCOCC2)nc(SCCCCCCCC)n1 [Compound D2S8N11] | 8.1%
CCCCCCCCSc1nc(NCCCCCC)nc(NCCN2CCN(C)CC2)n1 [Compound D5S8N6] | 1.6%
CCCCCCCCCCCCCCCNc1nc(NCCN(C)C)nc(SCCCCCCCCCCC)n1 [Compound D1S11N15] | 6.2%
CCCCCCCCCCCCCCCCCCSc1nc(NCCCCCCCCCCCCCCCC)nc(NCCN2CCCCC2)n1 [Compound D4S18N16] | 0.4%
CCCCCCCCCCCCNc1nc(NCCCN2CCOCC2)nc(SCCCCCCCCCCC)n1 [Compound D8S11N12] | 1.0%
CCCCCCCCCSc1nc(NCCCCCC)nc(NCCCN2CCN(C)CC2)n1 [Compound D9S9N6] | 1.8%
CCCCCCCCSc1nc(NCCCCCC)nc(NCCCN2CCOCC2)n1 [Compound D8S8N6] | 1.0%
CCCCCCCCCCCSc1nc(NCCN2CCOCC2)nc(SCCCCCC)n1 [Compound D2S6S11] | 7.4%
CCCCCCCCCCCNc1nc(NCCN(C)C)nc(SCCCCCCCC)n1 [Compound D1S8N11] | 9.0%
CCCCCCCCCCCCN(CCCCCCCCCCCC)c1nc(NCCN(CC)CC)nc(SCCCCCCCCCCC)n1 [D7S11^2N12] | 0.7%
CCCCCCCCCCCSc1nc(NCCCCCC)nc(NCCN2CCOCC2)n1 [Compound D2S11N6] | 5.4%
CCCCCCCCCCCNc1nc(NCCCN(C)C)nc(SCCCCCC)n1 [Compound D6S6N11] | 2.5%
CCCCCCCCCCCCCCCSc1nc(NCCCCCCCCCCC)nc(NCCN2CCOCC2)n1 [Compound D2S15N11] | 3.3%
CCCCCCCCCCCCCCCCCCNc1nc(NCCN(CC)CC)nc(SCCCCCC)n1 [Compound D7S6N18] | 4.6%

Compound | Absolute mRNA transfection efficiency in HEK293 cells
CCCCCCCCCCCCSc1nc(NCCCCCC)nc(NCC2CCN(C)CC2)n1 [Compound D10S12N6] | 0.2%
CCCCCCCCCCCCCCCCCCSc1nc(NCCCCCCC)nc(NCCN2CCOCC2)n1 [Compound D2S18N7] | 1.0%
CCCCCCCCCCCCCCCCSc1nc(NCCCCCCCCCCCC)nc(NCCN2CCN(C)CC2)n1 [Compound D5S16N12] | 3.4%
CCCCCCCCCCCCNc1nc(NCCN2CCN(C)CC2)nc(SCCCCCC)n1 [Compound D5S6N12] | 4.4%
CCCCCCCCCCCCCCCSc1nc(NCC2CCN(C)CC2)nc(SCCCCCC)n1 [Compound D10S6S15] | 40.0%
CCCCCCCCCCCCCCCCSc1nc(NCCCCCCCCC)nc(NCCCN(C)C)n1 [Compound D6S16N9] | 76.1%
CCCCCCCCCCCCCCCCNc1nc(NCCN2CCOCC2)nc(SCCCCCCCCCCC)n1 [Compound D2S11N16] | 1.1%
CCCCCCCCCCCSc1nc(NCCN2CCCCC2)nc(SCCCCCCCC)n1 [Compound D4S8S11] | 10.9%
CCCCCCCCCCCCN(CCCCCCCCCCCC)c1nc(NCCN2CCCCC2)nc(SCCCCCCC)n1 [D4S7^2N12] | 1.0%
CCCCCCCCCCCCSc1nc(NCCCCCCC)nc(NCCN2CCCC2)n1 [Compound D3S12N7] | 9.2%
CCCCCCCCCCCCCCCNc1nc(NCCN2CCN(C)CC2)nc(SCCCCCCCCCCCC)n1 [Compound D5S12N15] | 0.8%
CCCCCCCCCCCCCCCNc1nc(NCCCN2CCN(C)CC2)nc(SCCCCCCCCCC)n1 [Compound D9S10N15] | 5.4%
CCCCCCCCCCCCCCCSc1nc(NCCN(CC)CC)nc(SCCCCCCC)n1 [Compound D7S7S15] | 5.4%
CCCCCCCCCCCCCCCNc1nc(NCCN(C)C)nc(SCCCCCCCCCCCCCCC)n1 [Compound D1S15N15] | 0.3%
CCCCCCCCCCCCCCCCCCNc1nc(NCCCN2CCN(C)CC2)nc(SCCCCCCCCCCC)n1 [Compound D9S11N18] | 14.9%
CCCCCCCCNc1nc(NCCN2CCN(C)CC2)nc(SCCCCCCC)n1 [Compound D5S7N8] | 4.3%
CCCCCCCCCCCCCCCSc1nc(NCCCCCCCCCCCC)nc(NCCN2CCCC2)n1 [Compound D3S15N12] | 7.5%
CCCCCCCCCCCCCCCCCCNc1nc(NCCCN(C)C)nc(SCCCCCCCCCCCCCCCC)n1 [Compound D6S16N18] | 0.0%
CCCCCCCCCSc1nc(NCCN2CCOCC2)nc(SCCCCCCC)n1 [Compound D2S7S9] | 37.7%
CCCCCCCCCCCCN(CCCCCCCCCCCC)c1nc(NCCN2CCOCC2)nc(SCCCCCCCC)n1 [D2S8^2N12] | 0.1%
CCCCCCCCCCCCCCCNc1nc(NCCN2CCCC2)nc(SCCCCCCCCCCC)n1 [Compound D3S11N15] | 31.3%
CCCCCCCCCCCCNc1nc(NCCCN2CCN(C)CC2)nc(SCCCCCCCCCCCC)n1 [Compound D9S12N12] | 0.9%
CCCCCCCCCCCCCCSc1nc(NCC2CCN(C)CC2)nc(N(CCCCCCCCCCCC)CCCCCCCCCCCC)n1 [D10S14^2N12] | 0.2%
CCCCCCCCCCCCCCCSc1nc(NCCCCCCCCCCCC)nc(NCCN2CCOCC2)n1 [Compound D2S15N12] | 0.1%
